{"source": "paper PMC6930570", "about": "“2-Arylidene-1-indandiones as Pleiotropic Agents with Antioxidant and Inhibitory Enzymes Activities” (Molecules, 2019)", "key": {"[1]": {"experiment": "Reducing activity of the stable radical DPPH", "format": "biochemical", "description": "The novel derivatives were studied for their interaction with the sTable 2,2-diphenyl-1-picrylhydrazyl free radical (DPPH)at concentration 50 µM, 100 µM and 200 µM after 20 and 60 min (Table 2). In this assay the DPPH radical is reduced transferring one electron from the antioxidant. Phenolic compounds such as catechol and derivatives generate phenoxide anions with strong antioxidant capacity. Nordihydroguaretic acid (NDGA), the reference compound acts by this mechanism. Compound 10 presents the highest scavenging activity at 100 µM after 20 min correlated with the presence of the phenolic OH. Compounds 3, 4, 5, 7 presented medium activities depending from time and concentration. The presence of the heteroatom O or S seems to influence the activity e.g., derivatives 1, 2, and 3. Replacement of phenyl ring (4) by a thienyl group (1) decreases antioxidant behavior. […] On the contrary the presence of the furyl ring (3) enhances reduction. Additionally, the presence of a π-dimethyl-amino group 6 reduces the scavenging ability whereas its absence in (5), increases the activity. The presence of two conjugated double bonds (5) leads to lower activity compared to the simpler compound 4. Compounds 9 and 10 present the highest milogP values (5.94). Both include a phenolic hydrogen in their structure. […] On the contrary in compound 9 steric reasons are possible to lead to a decrease. Lipophilicity seems to influence the interaction of compound 10.\nTo a solution of DPPH in absolute ethanol an equal volume of the compounds with final concentrations of 50, 100 and 200 µM from a stock solution of 10 mM (in 1% DMSO and ethanol) was added. After 20 and 60 min the absorbance was recorded at 517 nm at room temperature (Table 2)."}, "[2]": {"target": "T1, soybean lipoxygenase (Glycine max, UniProt P08170)", "T1 construct": "purchased Sigma Chemical, Co. (St. Louis)", "T1 sequence (P08170 1-839)": "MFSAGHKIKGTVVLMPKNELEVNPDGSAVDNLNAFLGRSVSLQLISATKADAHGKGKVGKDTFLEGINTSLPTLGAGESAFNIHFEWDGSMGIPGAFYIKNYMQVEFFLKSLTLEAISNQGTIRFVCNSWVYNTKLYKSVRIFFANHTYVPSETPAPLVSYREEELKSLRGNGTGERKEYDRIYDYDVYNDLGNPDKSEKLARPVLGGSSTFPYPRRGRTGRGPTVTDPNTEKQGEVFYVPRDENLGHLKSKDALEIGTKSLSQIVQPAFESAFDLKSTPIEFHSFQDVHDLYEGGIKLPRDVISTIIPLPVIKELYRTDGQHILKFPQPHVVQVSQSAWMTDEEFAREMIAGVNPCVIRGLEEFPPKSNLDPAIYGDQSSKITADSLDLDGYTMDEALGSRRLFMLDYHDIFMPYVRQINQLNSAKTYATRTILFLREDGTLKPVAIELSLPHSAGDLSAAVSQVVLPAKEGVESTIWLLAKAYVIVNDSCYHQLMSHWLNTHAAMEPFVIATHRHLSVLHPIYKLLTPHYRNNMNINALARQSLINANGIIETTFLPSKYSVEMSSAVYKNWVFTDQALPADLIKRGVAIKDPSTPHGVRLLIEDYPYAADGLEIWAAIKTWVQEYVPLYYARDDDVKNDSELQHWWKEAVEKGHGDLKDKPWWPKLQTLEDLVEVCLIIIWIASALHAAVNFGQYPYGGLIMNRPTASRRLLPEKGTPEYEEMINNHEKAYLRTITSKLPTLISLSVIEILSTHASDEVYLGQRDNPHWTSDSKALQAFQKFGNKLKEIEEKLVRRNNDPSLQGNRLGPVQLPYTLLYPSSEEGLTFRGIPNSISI", "experiment": "Soybean lipoxygenase inhibition in vitro", "format": "biochemical", "settings": "sodium linoleate substrate, no = no action under the experimental conditions, read-out: LOX (% Inhibition 100 µM)", "description": "Thus, we used soybean LOX in our in vitro experiments.\nIn vitro study was performed as reported previously by our group. Sodium linoleate (0.1 mM) and 0.2 mL of enzyme solution (1/9 × 104 w/v in saline) were used for the incubation of the tested derivatives."}, "[3]": {"experiment": "ABTS+. decolorization assay", "format": "biochemical", "settings": "1 min, no = no action under the experimental conditions", "excerpt": "The radical cation ABTS^+• is directly generated through potassium persulfate by oxidation with no participation of an intermediary radical and then the reduction is followed by adding electron-donating antioxidants. In this assay the radical is generated before adding the antioxidant (decolorization assay). […] It seems that lipophilicity influences the activity, since both are presenting high lipophilicity values. […] The radical cation ABTS^+• was generated from an ABTS stock solution in water (7 mM) which was mixed with potassium persulfate (2.45 mM) and left in the dark at room temperature for 12–16 h before use. The results are recorded after 1min of the mixing solutions at 734 nm and compared to the appropriate standard inhibitor Trolox (Table 3)."}, "[4]": {"test_system": "carrageenin-induced rat paw edema", "experiment": "Inhibition of the carrageenin-induced rat paw edema (CPE)", "format": "in vivo, Fisher 344 rats", "settings": "0.01 mmol/kg body weight, intraperitoneally, 3.5 h after carrageenin", "excerpt": "Carrageenin-induced rat paw edema (CPE) model was used to study the in vivo anti-inflammatory activity of the tested derivatives and the results are presented in Table 3. […] Compounds 2, 7, 8, 10, and 12 presented small differences in their biological activity. The presence of the thienyl group as well as of the furyl leads to higher anti-inflammatory activity (1 and 3) while substitution with a phenyl group leads to two-fold decrease of the activity (28%).\nEdema was induced in the right hind paw of Fisher 344 rats (150–200 g) by the intradermal injection of 0.1 mL 2% carrageenin in water. Both sexes were used while females pregnant were excluded. Each group was composed of 6–15 animals. The animals, which have been bred in our laboratory, were housed under standard conditions and received a diet of commercial food pellets and water ad libitum during the maintenance but they were entirely fasted during the experiment period. Our studies were in accordance with recognised guidelines on animal experimentation. (guidelines for the care and use of laboratory animals published by the Greek Government 160/1991, based on EU regulations 86/609). Rats were kept in the Centre of the School of Veterinary Medicine (EL54 BIO42), Aristotle University of Thessaloniki, which is registered by the official state veterinary authorities (presidential degree 56/2013, in harmonization with the European Directive 2010/63/EEC). The experimental protocols were approved by the Animal Ethics Committee of the Prefecture of Central Macedonia (no. 270079/2500). The tested compounds 0.01 mmol/kg body weight were suspended in water, with a few drops of Tween 80 and ground in a mortar before use and were given intraperitoneally simultaneously with the carrageenin injection. The rats were euthanized 3.5 h after carrageenin injection. The difference between the weight of the injected and uninjected paws was calculated for each animal. The change in paw weight was compared with that in control animals (treated with water) and expressed as a percent inhibition of the edema CPE % values […] [58, 59]. Indomethacin in 0.01 mmol/kg (47%). Values CPE % are the mean from two different experiments with a standard error of the mean less than 10% (Table 3)."}}, "data": [{"smiles": "O=C1C(=Cc2cccc(Oc3ccccc3)c2)C(=O)c2ccccc21", "note": "[Compound 7, (Z)-2-(3-phenoxybenzylidene)-1H-indene-1,3(2H)-dione]", "values": [{"measurement": "RA% 50 µM 20 min", "setting": "[1]; 50 µM, 20 min", "value": 27, "unit": "%"}, {"measurement": "RA% 50 µM 60 min", "setting": "[1]; 50 µM, 60 min", "value": 35, "unit": "%"}, {"measurement": "RA% 100 µM 20 min", "setting": "[1]; 100 µM, 20 min", "value": 40, "unit": "%"}, {"measurement": "RA% 100 µM 60 min", "setting": "[1]; 100 µM, 60 min", "value": 50, "unit": "%"}, {"measurement": "RA% 200 µM 20 min", "setting": "[1]; 200 µM, 20 min", "value": 75, "unit": "%"}, {"measurement": "RA% 200 µM 60 min", "setting": "[1]; 200 µM, 60 min", "value": 85, "unit": "%"}, {"measurement": "inhibition at 100 µM", "setting": "[2]", "value": 67.3, "unit": "%"}, {"measurement": "ABTS+. % 100 µM (decolorization activity)", "setting": "[3]", "value": 37, "unit": "%"}, {"measurement": "CPE % (reduction of the rat paw edema)", "setting": "[4]", "value": 41, "unit": "%"}, {"measurement": "inhibition in vivo at 10 µmol/kg", "setting": "[4]; Rattus norvegicus, ip, read-out: CPE % (reduction of the rat paw edema)", "value": 41, "unit": "%"}, {"measurement": "melting point", "value": "143 to 145", "unit": "°C"}]}]}
